In PubChem BioAssay (NCI):
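Test compounds were applied to cells in 96-well plates for 48 hours at 5 doses. GI50 is the concentration that inhibits growth by half. TGI: concentration producing complete growth inhibition.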

What was measured:
Experiment in all cases: inhibition of tumour cell growth, NCI panel, 48 h
[1] = tested on: PC-3 prostate
[2] = tested on: BT-549 breast
[3] = tested on: RXF 393 renal
[4] = tested on: IGROV1 ovarian
[5] = tested on: K-562 leukemia
[6] = tested on: T-47D breast
[7] = tested on: HCC-2998 colon
[8] = tested on: SR leukemia

Row | SMILES | TGI [1] [µM] | TGI [2] [µM] | TGI [3] [µM] | TGI [4] [µM] | TGI [5] [µM] | TGI [6] [µM] | TGI [7] [µM] | TGI [8] [µM] | GI50 [1] [µM] | GI50 [4] [µM] | GI50 [5] [µM] | GI50 [6] [µM] | GI50 [7] [µM]
1 | Clc1ccc2oc(CCc3ccccc3)nc2c1 | > 100 | > 100 | 99.3 | > 100 | > 100 | > 100 | 77.1 | > 100 |  |  |  |  | 
2 | CC(C)(C)OC(=O)NCCCCC(N)NC(=O)c1ccccc1 (centres undefined) | > 100 | > 100 | > 100 | > 100 | > 100 | > 100 | > 100 |  |  |  |  |  | 
3 | CC(C)/C(Cl)=N/OC(=O)Nc1ccc(Cl)c(Cl)c1 | 33.1 | 9.62 | 26.7 | 26.4 |  | 12.2 | 28.6 | > 100 |  |  |  |  | 
4 | COc1cc(Oc2nc3ccc(C(F)(F)F)cc3nc2-c2ccccc2)cc(OC)c1OC | > 100 | 56 | 45.7 | > 100 | > 100 | > 100 | > 100 | > 100 |  |  |  |  | 
5 | C=C(C)[C@@H]1CC[C@]2(C(=O)OC)CC[C@]3(C)[C@H](CC[C@@H]4[C@@]5(C)CC[C@H](O)C(C)(C)[C@@H]5CC[C@]43C)[C@@H]12 | 34.8 |  | 38.9 | 42.2 | 47 | 34 |  | > 100 |  |  |  |  | 
6 | CN(C)CCNC(=O)c1cccc2c(NC(CCC(N)=O)C(=O)O)c3ccccc3nc12 (centres undefined) | 23.5 | 33.4 |  | 36.6 | > 100 |  | 55.6 | > 100 |  |  |  |  | 
7 | COc1cccc(C2c3cc4c(cc3OC3COC(=O)C32)OCO4)c1OC (centres undefined) | > 100 | > 100 | > 100 | > 100 |  |  | > 100 |  |  |  |  |  | 
8 | CSc1c(C#N)c(N)n(-c2ccc(Cl)cc2)c(=O)c1C#N | > 100 | > 100 | > 100 | > 100 | > 100 | > 100 | > 100 | > 100 |  |  |  |  | 
9 | COc1ccc2c3c1O[C@H](c1ccc(O)cc1)[C@H]3[N+](C)(C)CC2 | > 100 | > 100 | > 100 | > 100 | 88.2 | > 100 | > 100 | > 100 |  |  |  |  | 
10 | C[N+](C)(C)c1ncnc2c1ncn2C1CCCO1 (centres undefined) | > 100 | > 100 | > 100 | > 100 | > 100 | > 100 | > 100 |  |  |  |  |  | 
11 | COc1ccc(C2=NOC(N)(c3ccc(OC)cc3)C2)cc1 (centres undefined) | > 100 | > 100 |  | > 100 | > 100 |  | > 100 | > 100 |  |  |  |  | 
12 | CN(C)CCc1c2c(nc3ccccc13)C(=O)c1cccnc1C2=O | 3.02 | 1.71 | 1.26 | 2.14 | > 29.1 | 10.6 | 2.71 | 0.144 |  |  |  |  | 
13 | CCCn1c(=O)c(N2CCN(c3ccccc3)CC2)nc2sc3ccccc3c21 | > 100 | > 100 |  | > 100 |  | > 100 |  |  |  |  |  |  | 
14 | O=c1[nH]c(Nc2nc3ccccc3[nH]2)nc(O)c1Cc1ccccc1 | > 100 | > 100 |  | > 100 | > 100 | > 100 |  | > 100 |  |  |  |  | 
15 | COc1cc(O)c2c(=O)c(OC)c(-c3ccc(OC)c(OC)c3)oc2c1 | > 100 |  |  | > 100 | > 100 | > 100 | > 100 |  | > 100 | > 100 | > 100 | 31.1 | 94.4
16 | CN1CCN(c2ccc3c(c2)NCC(=O)N3)CC1 | > 100 | > 100 | > 100 | > 100 | > 100 | > 100 | > 100 | > 100 |  |  |  |  | 
17 | Cn1c(=O)n2n(c1=O)C(C)(C13CC4CC(CC(C4)C1)C3)C13CC4CC(CC1C4)CC23 (centres undefined) | > 100 | > 100 |  | > 100 | > 100 | > 100 |  | > 100 |  |  |  |  | 
18 | O=C(O)c1ccccc1N=Nc1c(O)c(S(=O)(=O)O)cc2cc(S(=O)(=O)O)ccc12 | > 100 |  | > 100 | > 100 | > 100 | > 100 | > 100 | > 100 |  |  |  |  | 
19 | O=C1Cc2c([nH]c3ccc(C(=O)O)cc23)-c2ccccc2N1 | > 100 | > 100 |  | > 100 | > 100 | > 100 | > 100 | > 100 |  |  |  |  | 
20 | OC(c1cccnc1Cl)c1nc2ccccc2c2ccnc(Cl)c12 (centres undefined) | 69.1 | > 100 | 35.4 | > 100 | > 100 | > 100 |  | 17.7 |  |  |  |  | 
21 | Nc1ncnc2c1ncn2[C@@H]1O[C@H](COC(c2ccccc2)(c2ccccc2)c2ccccc2)[C@@H](OC(=S)Oc2ccccc2)[C@@H]1F | 15.2 | 19.9 | 12.3 | 10.8 | > 100 | 52.3 | 28.5 | 8.24 |  |  |  |  | 
22 | COc1ccc(CNc2cc(=O)n(C)c(=O)[nH]2)cc1 | > 100 | > 100 | > 100 | > 100 | > 100 | > 100 | > 100 | > 100 |  |  |  |  | 
23 | COc1cccc(C(=O)C#Cc2cnc(OC)nc2OC)c1 | 2.88 | 2.63 | 1.39 | 2.12 | > 100 |  | 17.5 |  |  |  |  |  | 
24 | CO/N=C1/c2sccc2[C@H](NC(=O)C(Cc2ccccc2)NC(=O)OC(C)(C)C)[C@@H]1O (some centres undefined) | > 100 | > 100 | > 100 | > 100 | > 100 | > 100 | > 100 | > 100 |  |  |  |  | 
25 | CN(CCCNC(=O)c1cc(-c2ccccc2)nc2ccccc12)CCCNC(=O)c1cc(-c2ccccc2)nc2ccccc12 | 13 | 26.8 | 16 | 13.7 | 4.69 | 9.92 | 3.36 | 12.3 |  |  |  |  | 
26 | CCOC(=O)C1CCCCN1C(=O)Cc1c[nH]c2ccccc12 (centres undefined) | > 100 | > 100 | > 100 | > 100 | > 100 | > 100 | > 100 |  |  |  |  |  | 
